What was measured:
[1] = tested on: SMN2 minigene mRNA (SMN2-A minigene) in HEK293H cells; experiment: SMN2 minigene mRNA splicing RT-qPCR assay in cultured cells; format: cell-based, human; conditions: Homo sapiens, HEK293-H; concentration increasing full length SMN2 mRNA 1.5-fold relative to vehicle-treated cells; HEK293H cells with SMN2-A minigene, 24 hours, 7-point concentration data; read-out: EC1.5x for production of full length SMN2 mRNA
Summary of the method: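 HEK293H cells stably carrying the SMN2-A minigene were treated for 24 h at 37 °C with a 7-point, 3.16-fold dilution series of compound. Multiplex RT-qPCR measured exon 7-containing minigene FL mRNA against GAPDH, expressed relative to vehicle by modified ΔΔCt; the EC1.5× is the concentration giving a 1.5-fold increase.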

[2] = tested on: Smn protein in SMA patient fibroblast cells (GM03813); experiment: Smn protein assay in cultured cells (SMN HTRF); format: cell-based, human; conditions: SMA patient fibroblast cells, 48 hours; for EC1.5x for Smn protein expression: 7-point concentration curve, SMN HTRF, concentration producing 1.5 times Smn protein vs DMSO vehicle control; for maximum fold (Fold) increase of Smn protein: 7-point concentration data, fold relative to vehicle control
Summary of the method: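 SMA patient fibroblasts (5,000 cells/well, DMEM-10% FBS) were treated for 48 h at 37 °C with a 7-point, 3.16-fold dilution series in triplicate. RIPA lysates were probed by HTRF (anti-SMN d2/kryptate, overnight, room temperature), reading 665/620 nm. EC1.5× is the concentration giving 1.5-fold Smn over DMSO vehicle.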

Row | SMILES | EC (1.5-fold increase) [1] | EC1.5x for Smn protein expression [2] | maximum fold (Fold) increase of Smn protein [2] | melting point
1 | CCN1CC=C(c2ccc3nc(-c4ccc(OC)c(OC)c4)cc(=O)n3c2)CC1 [Compound 370, 2-(3,4-dimethoxyphenyl)-7-(1-ethyl-1,2,3,6-tetrahydropyridin-4-yl)-4H-pyrido[1,2-a]pyrimidin-4-one] | 0.1 to 0.3 µM | *** (an EC1.5× between >0.3 μM and ≤1 μM is indicated by three stars (***)) | ***** (a fold increase >1.65 is indicated by five stars (*****)) | 170 to 172 °C
2 | COc1ccc(-c2ccc3nc(C4=CCNCC4)cc(=O)n3c2)cc1OC [Compound 371, 7-(3,4-dimethoxyphenyl)-2-(1,2,3,6-tetrahydropyridin-4-yl)-4H-pyrido[1,2-a]pyrimidin-4-one] | 0.1 to 0.3 µM | *** (an EC1.5× between >0.3 μM and ≤1 μM is indicated by three stars (***)) | **** (a fold increase between >1.5 and ≤1.65 is indicated by four stars (****)) | 172 to 178 °C
3 | Cc1cn2cc(-c3cc(=O)n4cc(N5CCN(C(C)C)CC5)ccc4n3)cc(F)c2n1 [Compound 373, 2-(8-fluoro-2-methylimidazo[1,2-a]pyridin-6-yl)-7-[4-(propan-2-yl)piperazin-1-yl]-4H-pyrido[1,2-a]pyrimidin-4-one] | < 0.1 µM | **** (an EC1.5x≤0.3 μM is indicated by four stars (****)) | **** (a fold increase between >1.5 and ≤1.65 is indicated by four stars (****)) | 260 to 264 °C
4 | Cc1cn2cc(-c3cc(=O)n4cc(N5CCN(C(C)C)CC5)ccc4n3)cc(Cl)c2n1 [Compound 374, 2-(8-chloro-2-methylimidazo[1,2-a]pyridin-6-yl)-7-[4-(propan-2-yl)piperazin-1-yl]-4H-pyrido[1,2-a]pyrimidin-4-one] | < 0.1 µM | **** (an EC1.5x≤0.3 μM is indicated by four stars (****)) | ***** (a fold increase >1.65 is indicated by five stars (*****)) | 287 to 292 °C
5 | Cc1cn2cc(-c3ccc4nc(C5=CCNCC5)cc(=O)n4c3)ccc2n1 [Compound 375, 7-(2-methylimidazo[1,2-a]pyridin-6-yl)-2-(1,2,3,6-tetrahydropyridin-4-yl)-4H-pyrido[1,2-a]pyrimidin-4-one] | < 0.1 µM | **** (an EC1.5x≤0.3 μM is indicated by four stars (****)) | **** (a fold increase between >1.5 and ≤1.65 is indicated by four stars (****)) | 197 to 201 °C
6 | Cc1cn2cc(-c3ccc4nc(C5=CCN(C)CC5)cc(=O)n4c3)ccc2n1 [Compound 376, 7-(2-methylimidazo[1,2-a]pyridin-6-yl)-2-(1-methyl-1,2,3,6-tetrahydropyridin-4-yl)-4H-pyrido[1,2-a]pyrimidin-4-one] | < 0.1 µM | *** (an EC1.5× between >0.3 μM and ≤1 μM is indicated by three stars (***)) | *** (a fold increase between >1.35 and ≤1.5 is indicated by three stars (***)) | 203 to 207 °C
7 | COc1ccc(-c2ccc3nc(C4=CCN(C)CC4)cc(=O)n3c2)cc1OC [Compound 377, 7-(3,4-dimethoxyphenyl)-2-(1-methyl-1,2,3,6-tetrahydropyridin-4-yl)-4H-pyrido[1,2-a]pyrimidin-4-one] | 0.3 to 1 µM | ** (an EC1.5× between >1 μM and ≤3 μM is indicated by two stars (**)) | **** (a fold increase between >1.5 and ≤1.65 is indicated by four stars (****)) | 149 to 152 °C
8 | CCCN1CC=C(c2cc(C)c3nc(-c4ccc(OC)c(OC)c4)cc(=O)n3c2)CC1 [Compound 378, 2-(3,4-dimethoxyphenyl)-9-methyl-7-(1-propyl-1,2,3,6-tetrahydropyridin-4-yl)-4H-pyrido[1,2-a]pyrimidin-4-one] | < 0.1 µM | ** (an EC1.5× between >1 μM and ≤3 μM is indicated by two stars (**)) | **** (a fold increase between >1.5 and ≤1.65 is indicated by four stars (****)) | 171 to 177 °C
9 | COc1ccc(-c2cc(=O)n3cc(C4=CCN(C5CCC5)CC4)cc(C)c3n2)cc1OC [Compound 379, 7-(1-cyclobutyl-1,2,3,6-tetrahydropyridin-4-yl)-2-(3,4-dimethoxyphenyl)-9-methyl-4H-pyrido[1,2-a]pyrimidin-4-one] | 0.1 to 0.3 µM |  | *** (a fold increase between >1.35 and ≤1.5 is indicated by three stars (***)) | 167 to 178 °C
10 | Cc1nc2ccc(-c3cc(=O)n4cc(N5CCC(N)CC5)ccc4n3)cc2s1 [Compound 381, 7-(4-aminopiperidin-1-yl)-2-(2-methyl-1,3-benzothiazol-6-yl)-4H-pyrido[1,2-a]pyrimidin-4-one] | 0.1 to 0.3 µM | * (An EC1.5× for Smn protein expression between >3 μM and ≤10 μM is indicated by one star (*)) | *** (a fold increase between >1.35 and ≤1.5 is indicated by three stars (***)) | 190 to 194 °C
11 | Cc1nc2ccc(-c3cc(=O)n4cc(N5CCC(N)C5)ccc4n3)cc2s1 (stereo not drawn) [Compound 382, 7-(3-aminopyrrolidin-1-yl)-2-(2-methyl-1,3-benzothiazol-6-yl)-4H-pyrido[1,2-a]pyrimidin-4-one] | < 0.1 µM | *** (an EC1.5× between >0.3 μM and ≤1 μM is indicated by three stars (***)) | **** (a fold increase between >1.5 and ≤1.65 is indicated by four stars (****)) | 196 to 200 °C
12 | Cc1nc2ccc(-c3cc(=O)n4cc(N5CC[C@@H](N(C)C)C5)ccc4n3)cc2s1 [Compound 383, 7-[(3R)-3-(dimethylamino)pyrrolidin-1-yl]-2-(2-methyl-1,3-benzothiazol-6-yl)-4H-pyrido[1,2-a]pyrimidin-4-one] | 0.3 to 1 µM |  | ** (a fold increase between >1.2 and ≤1.35 is indicated by two stars (**)) | 235 to 240 °C
13 | Cc1nc2ccc(-c3cc(=O)n4cc(C5=CCNCC5)ccc4n3)cc2s1 [Compound 384, 2-(2-methyl-1,3-benzothiazol-6-yl)-7-(1,2,3,6-tetrahydropyridin-4-yl)-4H-pyrido[1,2-a]pyrimidin-4-one] | < 0.1 µM | **** (an EC1.5x≤0.3 μM is indicated by four stars (****)) | ***** (a fold increase >1.65 is indicated by five stars (*****)) | 124 to 126 °C
14 | COCCN1CCN(c2ccc3nc(-c4cc(F)c5nc(C)cn5c4)cc(=O)n3c2)CC1 [Compound 385, 2-(8-fluoro-2-methylimidazo[1,2-a]pyridin-6-yl)-7-[4-(2-methoxyethyl)piperazin-1-yl]-4H-pyrido[1,2-a]pyrimidin-4-one] | < 0.1 µM | *** (an EC1.5× between >0.3 μM and ≤1 μM is indicated by three stars (***)) | ***** (a fold increase >1.65 is indicated by five stars (*****)) | 258 to 262 °C
15 | COc1ccc(-c2cc(=O)n3cc(C4=CCN(C5COC5)CC4)cc(C)c3n2)cc1OC [Compound 386, 2-(3,4-dimethoxyphenyl)-9-methyl-7-[1-(oxetan-3-yl)-1,2,3,6-tetrahydropyridin-4-yl]-4H-pyrido[1,2-a]pyrimidin-4-one] | 0.3 to 1 µM |  | * (A maximum fold increase of ≤1.2 is indicated by one star (*)) | 180 to 195 °C
16 | COc1ccc(-c2cc(=O)n3cc(C4=CCN(C(C)C)CC4)cc(C)c3n2)cc1OC [Compound 387, 2-(3,4-dimethoxyphenyl)-9-methyl-7-[1-(propan-2-yl)-1,2,3,6-tetrahydropyridin-4-yl]-4H-pyrido[1,2-a]pyrimidin-4-one] | 0.3 to 1 µM |  | ** (a fold increase between >1.2 and ≤1.35 is indicated by two stars (**)) | 153 to 163 °C
17 | COc1ccc(-c2cc(=O)n3cc(C4=CCNCC4)c(C)cc3n2)cc1OC [Compound 389, 2-(3,4-dimethoxyphenyl)-8-methyl-7-(1,2,3,6-tetrahydropyridin-4-yl)-4H-pyrido[1,2-a]pyrimidin-4-one] | 1 to 3 µM |  | ** (a fold increase between >1.2 and ≤1.35 is indicated by two stars (**)) | 175 °C (dec.)
18 | COc1ccc(-c2cc(=O)n3cc(C4=CCN(C5CC5)CC4)cc(C)c3n2)cc1OC [Compound 390, 7-(1-cyclopropyl-1,2,3,6-tetrahydropyridin-4-yl)-2-(3,4-dimethoxyphenyl)-9-methyl-4H-pyrido[1,2-a]pyrimidin-4-one] | 0.3 to 1 µM |  | * (A maximum fold increase of ≤1.2 is indicated by one star (*)) | 180 to 189 °C

Reference: patent US11753407B2, “Compounds for treating spinal muscular atrophy” (PTC Therapeutics, Inc., priority 2012, dated 2023)
